US6599896B1 (Les Laboratoires Servier, priority 1999, dated 2003)

Tests used:
[1] = test system: cortical neurons in culture; assay: In vitro neurotoxicity caused by hypoxia in cortical cells (LDH activity); assay type: cell-based, rat; conditions: 20 μM; 3 hours hypoxia, LDH after 24 hours
Experimental: (§1) Cortical cells are extracted from Sprague-Dawley rat foetuses and cultured in MEM (minimum essential medium) containing 5% horse serum and 5% calf foetus serum.
After morphological examination of the cells, the culture supernatants are collected and the lactate dehydrogenase (LDH) activity therein is measured.

[2] = test system: cortical neurons in culture; assay: In vitro neurotoxicity caused by glutamate in cortical cells (LDH activity); assay type: cell-based, rat; conditions: 20 μM; 1 mM glutamate 15 minutes
Experimental: as §1
Just before treatment with glutamate, the culture medium is replaced by 300 μl of saline solution buffered with HEPES. The cells are incubated for 15 minutes together with 1 mM glutamate. The culture media are then replaced by 200 μl of MEM without serum and the cells are incubated at 37° C. for 24 hours. After morphological examination of the cells, the culture supernatants are collected and the lactate dehydrogenase (LDH) activity therein is measured.

[3] = test system: motoneurons; conditions: Duong et al., Br. J. Pharmacol., 128, 1385-1392; cited from earlier work
[4] = test system: AMPA/kainate receptors; assay: Patch clamp: current induced by kainate in telencephalic cells in primary culture; assay type: cell-based, rat
Experimental: Telencephalic cells of 16.5 day-old Wistar rat fetuses were cultured for 12 days. Patch clamp experiments were then conducted at ambient temperature in the following medium: 5 mM KCl, 140 mM NaCl, 10 mM Hepes, 2 mM MgCl2, 2 mM CaCl2 and 10 mM D-glucose (pH=7.3), and the micropipettes were filled with 140 mM KCl, 4 mM NaCl, 10 mM Hepes, 5 mM EGTA and 0.5 mM CaCl2 (pH=7.2).
That effect is measured by the patch clamp technique.

[5] = test system: mitochondrial genome; assay: In vivo expression of genes implicated in oxidative stress (RT-PCR, amygdala); conditions: rat, 15 mg/kg i.p. for 21 days
Experimental: After sacrifice of the animals and removal of the brains, the total RNA of the amygdala region is extracted and then subjected to an RT-PCR test. In brief, reverse transcription is performed on the extracted RNA, the transcription products are then amplified by chain polymerisation (PCR) and then subjected to high-resolution polyacrylamide gel electrophoresis. The bands of interest are removed from the gel, re-amplified, sequenced and analysed.

[6] = test system: astrocytes in culture; assay: ATP levels associated with hypoxia in astrocytes maintained in culture; assay type: cell-based, rat; conditions: hypoxia 24 hours
Experimental: Cultures of astrocytes are obtained using new-born rats according to the technique described by Booher J. and Sensenbrenner M. (Neurobiology 2, 97-105, […]). They are used three weeks after being placed in culture. […] The concentration of ATP is determined by luminescence and expressed in picomoles of ATP per mg of cellular proteins. The experiments are conducted in triplicate.

[7] = test system: purified embryonic motoneurons; assay: Death of motoneurons deprived of growth factors (survival count); assay type: cell-based, rat; conditions: BDNF 1 ng/ml; 2.5 days of culture
Experimental: Pregnant Sprague-Dawley rats are sacrificed on the 14th day of embryo life. The motoneurons of the embryos are purified according to the method published by C.
The motoneurons are seeded a density of approximately 1000 cells per 16-mm well and are cultured in Neurobasal, supplemented by B27 and horse serum. […] The surviving motoneurons are counted directly.
After 2.5 days of culture, motoneurons are counted in 2 areas of each of the 4 wells. Absolute value per area are presented (mean+/−s.e.m., n=8).

C[C@]12N[C@H](Cc3ccccc31)c1ccccc12 [MK-801]
protection against the effects of hypoxia (LDH activity) [1]: 86.3%
protection against toxicity caused by glutamate (LDH activity) [2]: total protection

Cl.FC(F)(F)c1cccc(C2=CCN(CCc3ccc4ccccc4c3)CC2)c1 [SR57746A]
activity on the survival of motoneurons in vitro [3]: active

CN1c2ccccc2C(NCCCCCCC(=O)O)c2ccc(Cl)cc2S1(=O)=O (stereo not drawn) [tianeptine]
effect on the current entering the cells, compound on its own (direct agonism) ([4]; 10 μM, without kainate): no effect
effect on the current induced by kainate ([4]; 4, 10 and 25 μM, kainate 250 μM, FIG. 1): increases the current induced by kainate
expression of mitochondrial genes in the amygdala [5]: overexpression of the mitochondrial genes of NADH ubiquinone reductase (sub-units 2 and 5) and also of genes coding for 16S rRNA, leu-tRNA and val-tRNA
percentage protection of astrocytes (ATP level) ([6]; 10 μM (maximal)): 68%
protection of astrocytes (ATP level) ([6]; 0.1-1-10 μM, FIG. 4): protects astrocytes in culture in a dose-dependent manner

B1: Brain-Derived Neurotrophic Factor (protein, UniProt P23560 19-247, looked up)
Neurotrophic factor BDNF …: APMKEANIRGQGGLAYPGVRTHGTLESVNGPKAGSRGLTSLADTFEHVIEELLDEDQKVRPNEENNKDADLYTSRVMLSSQVPLEPPLLFLLEEYKNYLDAANMSMRVRRHSDPARRGELSVCDSISEWVTAADKKTAVDMSGGTVTVLEKVPVSKGQLKQYFYETKCNPMGYTKEGCRGIDKRHWNSQCRTTQSYVRALTMDSKKRIGWRFIRIDTSCVCTLTIKRGR
notes: growth factor, 1 ng/ml, positive control for motoneuron survival
survival of motoneurons [7]: protect the motoneurons from cell death
